{"source": "patent US9598426B2", "about": "“Organic compounds” (INTRA-CELLULAR THERAPIES, INC., priority 2013, dated 2017)", "key": {"C57BL/6 mice": {"tested_on": "C57BL/6 mice", "test": "Haloperidol induced catalepsy model (bar grip test, step down latency)", "format": "in vivo, mouse", "conditions": "haloperidol 3 mg/Kg PO, male C57BL/6 mice, compound PO", "description": "Haloperidol Induced Catalepsy Model\nTo evaluate the potential beneficial effects to motor defects present in schizophrenics treated with typical and atypical antipsychotic agents and in Parkinson's disease patients, the compounds of the invention may be tested in a reversal of catalepsy model in which motor freezing, or catalepsy, is induced by potent dopamine D2 receptor antagonists such as haloperidol or risperidone. The method uses the “bar grip test”, in which the front paws of the mouse are placed so as to grip a 3 mm-diameter, suspended wooden bar. A “step down latency” is measured by recording the time until the mouse removes its paws from the wooden bar to the floor surface. Catalepsy is a freezing of the musculature that prevents the mouse from moving off the bar. […]\nA catalepsy score is recorded for each mouse at 2, 3, 4, and 6 hours after administration of drugs. […] The latency until the mouse steps both paws down from the bar to the floor surface (i.e., step down latency) is recorded up to 120 sec. […] If none of the 10 attempts are beyond 10 sec, the longest duration recorded is used as the catalepsy score. Otherwise, the initial cataleptic duration (>10 sec) is recorded during the 120 sec testing time. Mean step down latency is calculated for each treatment group."}, "rats": {"tested_on": "rats", "test": "Novel Object Recognition (NOR) assay", "format": "in vivo", "conditions": "PO, administered to a rat 2 hours before T1 (acquisition); 24 h interval", "description": "Novel Object Recognition Assay\nTo measure the cognition-enhancing effects of the compounds of the invention, the candidate compounds may be evaluated in a Novel Object Recognition (NOR) assay. This assay protocol is described in detail in Ennaceur et al., Behav. Brain Res. (1988) 31:47-59 and Prickaerts et al., Eur. J. Pharmacol. (1997) 337:125-136, the contents of each of which are incorporated by reference in their entirety. In this protocol, the rats are introduced to a chamber at time T1 and allowed to interrogate two identical “familiar objects” for six minutes. Twenty-four hours later, they are re-introduced to this chamber, where one of the familiar objects has been replaced with a novel object. The “discrimination index”, a measure of the time spent in close proximity to the novel over the familiar object, may then be measured. Since rodents will forget the original experiment at T1 within 4 hours, this test with a 24 h interval is a measure of strong cognitive enhancement.\nThis assay protocol can be modified in order to evaluate different phases of memory. There are three general phases of memory, namely, acquisition, consolidation and retrieval. In this modified protocol, the rats may be dosed with the candidate compound two hours before T1 and tested 24 h later without additional dosing. This is a test of the acquisition process. […]"}}}
{"compound": "CC(=O)c1ccc(Cn2nc3c(c2Nc2ccc(F)cc2)C(=O)N(C)C2=NC(C)(C)CN23)cc1", "note": "[Example 1, 7,8-Dihydro-2-(4-acetylbenzyl)-3-(4-fluorophenylamino)-5,7,7-trimethyl-[2H]-imidazo-[1,2-a]pyrazolo[4,3-e]pyrimidin-4(5H)-one]", "values": [{"measurement": "minimal effective dose", "setting": "C57BL/6 mice", "result": 0.1, "unit": "mg/kg"}, {"measurement": "minimal effective dose", "setting": "rats", "result": 0.1, "unit": "mg/kg"}]}
